Columns and labels:
[1] = test system: SARS-CoV-2; conditions: found in March 2020; cited from earlier work
[2] = test system: coronaviruses including SARS, MERS and SARS-CoV-2; conditions: cited from earlier work
[3] = First-in-human phase 1 single and multiple ascending dose pharmacokinetics in healthy volunteers; format: in vivo
Protocol: Single and multiple doses of Molnupiravir were evaluated in this first-in-human, phase 1, […] randomized, double-blind, placebo-controlled study in healthy volunteers, which included […] evaluation of the effect of food on pharmacokinetics. Eligible subjects were randomized in a 3:1 ratio to either study drug or placebo in the single- and multiple-ascending-dose parts of the study. Each cohort comprised 8 subjects, with single oral doses of 50 to 1600 mg administered in the single-ascending-dose part and twice-daily (BID) […] doses of 50 to 800 mg administered for 5.5 days in the multiple-ascending-dose part. Subjects were followed for 14 days following completion of dosing for assessments of safety, tolerability, and pharmacokinetics. Subjects in the food-effect evaluation were randomized in a 1:1 ratio to either 200 mg Molnupiravir in the fed state followed by 200 mg Molnupiravir in the fasted state, or vice versa, with a 14-day washout period between doses. A capsule formulation was used in all parts of the study, with the exception of single ascending doses ≤800 mg, where an oral solution formulation was used.

[4] = In-vitro dissolution study of Molnupiravir Capsules; format: physicochemical; conditions: 900 ml 0.1 N HCl, paddle 50 RPM
Protocol: Dissolution study of test product Molnupiravir Capsules 200 mg, 400 mg 800 mg was performed in order to understand % dissolution in release dissolution media. The dissolution media used for the test is 900 ml of 0.1 NHCl at 50 RPM with paddle.

**Q.** With `CC(C)C(=O)OC[C@H]1O[C@@H](n2ccc(NO)nc2=O)[C@H](O)[C@@H]1O` [Molnupiravir] as the compound, how does the “activity against SARS-CoV-2” value [1] read?
**A.** active

**Q.** And the activity against coronaviruses [2]?
**A.** Activity has also been demonstrated

**Q.** And the “mean AUCinf increase with dose” value ([3]; Day 1, power model, oral, lower bound of 90% CI slightly above unity)?
**A.** approximately dose-proportional

**Q.** And the “mean Cmax increase with dose” value ([3]; Day 1, power model, oral, upper bound of 90% CI slightly below unity)?
**A.** approximately dose-proportional

**Q.** And the “mean Cmax increase with dose” value ([3]; Day 6, BID oral dosing, 90% CI containing unity)?
**A.** dose proportional

**Q.** What about the “mean AUCτ increase with dose” value ([3]; Day 6, BID oral dosing, lower bound of 90% CI slightly above unity) of the same compound?
**A.** approximately dose-proportional

**Q.** And the “% Drug release of Molnupiravir” value ([4]; 200 mg capsules, 5 min)?
**A.** 85%

**Q.** What about the “% Drug release of Molnupiravir” value ([4]; 200 mg capsules, 10 min) of the same compound?
**A.** 97%

**Q.** What about the “% Drug release of Molnupiravir” value ([4]; 200 mg capsules, 15 min) of the same compound?
**A.** 97%

**Q.** What about the “% Drug release of Molnupiravir” value ([4]; 200 mg capsules, 20 min) of the same compound?
**A.** 102%

**Q.** What about the “% Drug release of Molnupiravir” value ([4]; 200 mg capsules, 30 min) of the same compound?
**A.** 103%

**Q.** And the “% Drug release of Molnupiravir” value ([4]; 200 mg capsules, 45 min)?
**A.** 102%

**Q.** And the “% Drug release of Molnupiravir” value ([4]; 400 mg capsules, 5 min)?
**A.** 86%

**Q.** And the “% Drug release of Molnupiravir” value ([4]; 400 mg capsules, 10 min)?
**A.** 90%

**Q.** What about the “% Drug release of Molnupiravir” value ([4]; 400 mg capsules, 15 min) of the same compound?
**A.** 93%

**Q.** And the “% Drug release of Molnupiravir” value ([4]; 400 mg capsules, 20 min)?
**A.** 97%

**Q.** And the “% Drug release of Molnupiravir” value ([4]; 400 mg capsules, 30 min)?
**A.** 97%

**Q.** What about the “% Drug release of Molnupiravir” value ([4]; 400 mg capsules, 45 min) of the same compound?
**A.** 97%

**Q.** What about the “% Drug release of Molnupiravir” value ([4]; 800 mg capsules, 5 min) of the same compound?
**A.** 84%

**Q.** And the “% Drug release of Molnupiravir” value ([4]; 800 mg capsules, 10 min)?
**A.** 95%

**Q.** What about the “% Drug release of Molnupiravir” value ([4]; 800 mg capsules, 15 min) of the same compound?
**A.** 97%

**Q.** And the “% Drug release of Molnupiravir” value ([4]; 800 mg capsules, 20 min)?
**A.** 99%

**Q.** And the “% Drug release of Molnupiravir” value ([4]; 800 mg capsules, 30 min)?
**A.** 101%

**Q.** And the “% Drug release of Molnupiravir” value ([4]; 800 mg capsules, 45 min)?
**A.** 101%

— patent US11702440B2, “Pharmaceutical polymorphs of Molnupiravir” (OPTIMUS DRUGS (P) LTD, priority 2021, dated 2023)
